# In PubChem BioAssay (NCI):
#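 Method: 48-hour compound exposure of cells in 96-well plates, five concentrations, linear interpolation of endpoints. GI50: concentration for 50% inhibition of growth. TGI marks complete inhibition of growth.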
# Tests used:
# Assay in all cases: DTP human tumour cell line panel, 48 h
# 786-0 renal = tested on: 786-0 renal
# A498 renal = tested on: A498 renal
# A549 NSCLC = tested on: A549 NSCLC
# ACHN renal = tested on: ACHN renal
# BT-549 breast = tested on: BT-549 breast
# CAKI-1 renal = tested on: CAKI-1 renal
# CCRF-CEM leukemia = tested on: CCRF-CEM leukemia
# COLO 205 colon = tested on: COLO 205 colon
# DU-145 prostate = tested on: DU-145 prostate
# EKVX NSCLC = tested on: EKVX NSCLC
# HCC-2998 colon = tested on: HCC-2998 colon
# HCT-116 colon = tested on: HCT-116 colon
# HCT-15 colon = tested on: HCT-15 colon
# HL-60(TB) leukemia = tested on: HL-60(TB) leukemia
# HOP-62 NSCLC = tested on: HOP-62 NSCLC
# HOP-92 NSCLC = tested on: HOP-92 NSCLC
# HS 578T breast = tested on: HS 578T breast
# HT29 colon = tested on: HT29 colon
# IGROV1 ovarian = tested on: IGROV1 ovarian
# K-562 leukemia = tested on: K-562 leukemia
# KM12 colon = tested on: KM12 colon
# LOX IMVI melanoma = tested on: LOX IMVI melanoma
# M14 melanoma = tested on: M14 melanoma
# MALME-3M melanoma = tested on: MALME-3M melanoma
# MCF7 breast = tested on: MCF7 breast
# MDA-MB-231 breast = tested on: MDA-MB-231 breast
# MDA-MB-435 = tested on: MDA-MB-435
# MOLT-4 leukemia = tested on: MOLT-4 leukemia
# NCI-H226 lung = tested on: NCI-H226 lung
# NCI-H23 lung = tested on: NCI-H23 lung
# NCI-H460 lung = tested on: NCI-H460 lung
# NCI-H522 lung = tested on: NCI-H522 lung
# NCI/ADR-RES ovarian = tested on: NCI/ADR-RES ovarian
# OVCAR-3 ovarian = tested on: OVCAR-3 ovarian
# OVCAR-4 ovarian = tested on: OVCAR-4 ovarian
# OVCAR-5 ovarian = tested on: OVCAR-5 ovarian
# OVCAR-8 ovarian = tested on: OVCAR-8 ovarian
# PC-3 prostate = tested on: PC-3 prostate
# RPMI-8226 leukemia = tested on: RPMI-8226 leukemia
# RXF 393 renal = tested on: RXF 393 renal
# SF-268 CNS = tested on: SF-268 CNS
# SF-295 CNS = tested on: SF-295 CNS
# SF-539 CNS = tested on: SF-539 CNS
# SK-MEL-2 melanoma = tested on: SK-MEL-2 melanoma
# SK-MEL-28 melanoma = tested on: SK-MEL-28 melanoma
# SK-MEL-5 melanoma = tested on: SK-MEL-5 melanoma
# SK-OV-3 ovarian = tested on: SK-OV-3 ovarian
# SN12C renal = tested on: SN12C renal
# SNB-19 CNS = tested on: SNB-19 CNS
# SNB-75 CNS = tested on: SNB-75 CNS
# SR leukemia = tested on: SR leukemia
# SW-620 colon = tested on: SW-620 colon
# T-47D breast = tested on: T-47D breast
# TK-10 renal = tested on: TK-10 renal
# U251 CNS = tested on: U251 CNS
# UACC-257 melanoma = tested on: UACC-257 melanoma
# UACC-62 melanoma = tested on: UACC-62 melanoma
# UO-31 renal = tested on: UO-31 renal
structure (smiles),measurement,setting,value
O=S1CCN(Cc2ccc(-c3ccc4ncnc(Nc5ccc(OCc6cccc(F)c6)c(Cl)c5)c4c3)o2)CC1,GI50,786-0 renal,6.54 µM
same,TGI,786-0 renal,> 25 µM
same,GI50,A498 renal,0.862 µM
same,TGI,A498 renal,> 16.7 µM
same,GI50,A549 NSCLC,5.92 µM
same,TGI,A549 NSCLC,> 25 µM
same,GI50,ACHN renal,0.082 µM
same,TGI,ACHN renal,> 25 µM
same,GI50,BT-549 breast,6.2 µM
same,TGI,BT-549 breast,> 23.9 µM
same,GI50,CAKI-1 renal,0.041 µM
same,TGI,CAKI-1 renal,> 25 µM
same,GI50,CCRF-CEM leukemia,6.89 µM
same,TGI,CCRF-CEM leukemia,24.8 µM
same,GI50,COLO 205 colon,4.77 µM
same,TGI,COLO 205 colon,13.5 µM
same,GI50,DU-145 prostate,4.26 µM
same,TGI,DU-145 prostate,> 25 µM
same,GI50,EKVX NSCLC,0.0304 µM
same,TGI,EKVX NSCLC,> 25 µM
same,GI50,HCC-2998 colon,5.34 µM
same,TGI,HCC-2998 colon,14.7 µM
same,GI50,HCT-116 colon,8.66 µM
same,TGI,HCT-116 colon,> 25 µM
same,GI50,HCT-15 colon,5.77 µM
same,TGI,HCT-15 colon,> 25 µM
same,GI50,HL-60(TB) leukemia,6.3 µM
same,TGI,HL-60(TB) leukemia,15.7 µM
same,GI50,HOP-62 NSCLC,14.8 µM
same,TGI,HOP-62 NSCLC,> 25 µM
same,GI50,HOP-92 NSCLC,3.95 µM
same,TGI,HOP-92 NSCLC,22.4 µM
same,GI50,HS 578T breast,4.63 µM
same,TGI,HS 578T breast,> 21.6 µM
same,GI50,HT29 colon,4.22 µM
same,TGI,HT29 colon,10.8 µM
same,GI50,IGROV1 ovarian,0.226 µM
same,TGI,IGROV1 ovarian,5.29 µM
same,GI50,K-562 leukemia,6.53 µM
same,TGI,K-562 leukemia,> 25 µM
same,GI50,KM12 colon,6.72 µM
same,TGI,KM12 colon,> 22.8 µM
same,GI50,LOX IMVI melanoma,4.65 µM
same,TGI,LOX IMVI melanoma,10.5 µM
same,GI50,M14 melanoma,5.84 µM
same,TGI,M14 melanoma,> 18.6 µM
same,GI50,MALME-3M melanoma,6.01 µM
same,TGI,MALME-3M melanoma,23.2 µM
same,GI50,MCF7 breast,6.1 µM
same,TGI,MCF7 breast,> 25 µM
same,GI50,MDA-MB-231 breast,5.19 µM
same,TGI,MDA-MB-231 breast,> 16.1 µM
same,GI50,MDA-MB-435,7.1 µM
same,TGI,MDA-MB-435,> 25 µM
same,GI50,MOLT-4 leukemia,4.94 µM
same,TGI,MOLT-4 leukemia,> 20.1 µM
same,GI50,NCI-H226 lung,4.4 µM
same,TGI,NCI-H226 lung,> 25 µM
same,GI50,NCI-H23 lung,8.42 µM
same,TGI,NCI-H23 lung,> 25 µM
same,GI50,NCI-H460 lung,7.62 µM
same,TGI,NCI-H460 lung,> 25 µM
same,GI50,NCI-H522 lung,0.647 µM
same,TGI,NCI-H522 lung,15.8 µM
same,GI50,NCI/ADR-RES ovarian,4.82 µM
same,TGI,NCI/ADR-RES ovarian,> 25 µM
same,GI50,OVCAR-3 ovarian,4.86 µM
same,TGI,OVCAR-3 ovarian,> 25 µM
same,GI50,OVCAR-4 ovarian,5.26 µM
same,TGI,OVCAR-4 ovarian,> 25 µM
same,GI50,OVCAR-5 ovarian,5.8 µM
same,TGI,OVCAR-5 ovarian,> 25 µM
same,GI50,OVCAR-8 ovarian,7.68 µM
same,TGI,OVCAR-8 ovarian,> 25 µM
same,GI50,PC-3 prostate,8.91 µM
same,TGI,PC-3 prostate,> 25 µM
same,GI50,RPMI-8226 leukemia,6.65 µM
same,TGI,RPMI-8226 leukemia,> 22.8 µM
same,GI50,RXF 393 renal,3.85 µM
same,TGI,RXF 393 renal,> 23.6 µM
same,GI50,SF-268 CNS,8.56 µM
same,TGI,SF-268 CNS,> 25 µM
same,GI50,SF-295 CNS,5.83 µM
same,TGI,SF-295 CNS,> 19 µM
same,GI50,SF-539 CNS,6.54 µM
same,TGI,SF-539 CNS,> 20.9 µM
same,GI50,SK-MEL-2 melanoma,4.41 µM
same,TGI,SK-MEL-2 melanoma,9.97 µM
same,GI50,SK-MEL-28 melanoma,5.75 µM
same,TGI,SK-MEL-28 melanoma,> 25 µM
same,GI50,SK-MEL-5 melanoma,3.09 µM
same,TGI,SK-MEL-5 melanoma,6.42 µM
same,GI50,SK-OV-3 ovarian,0.00587 µM
same,TGI,SK-OV-3 ovarian,> 25 µM
same,GI50,SN12C renal,7.77 µM
same,TGI,SN12C renal,> 25 µM
same,GI50,SNB-19 CNS,> 7.82 µM
same,TGI,SNB-19 CNS,> 25 µM
same,GI50,SNB-75 CNS,7.92 µM
same,TGI,SNB-75 CNS,> 25 µM
same,GI50,SR leukemia,5.38 µM
same,TGI,SR leukemia,17.5 µM
same,GI50,SW-620 colon,7.34 µM
same,TGI,SW-620 colon,> 25 µM
same,GI50,T-47D breast,1.95 µM
same,TGI,T-47D breast,18.3 µM
same,GI50,TK-10 renal,0.00776 µM
same,TGI,TK-10 renal,> 16.3 µM
same,GI50,U251 CNS,9.4 µM
same,TGI,U251 CNS,> 25 µM
same,GI50,UACC-257 melanoma,5.43 µM
same,TGI,UACC-257 melanoma,> 20.5 µM
same,GI50,UACC-62 melanoma,4.12 µM
same,TGI,UACC-62 melanoma,10.6 µM
same,GI50,UO-31 renal,0.473 µM
same,TGI,UO-31 renal,24.9 µM
